Like-named read-outs stand apart in the source and are kept apart here.
Columns and labels:
Format in all cases: cell-based
[1] = test system: IgE antibody production from human lymphocyte; experiment: Human in vitro IgE antibody production suppressing activity (lymphocyte culture with IL-4 + IL-10 + anti-CD40 antibody, sandwich ELISA); conditions: for IC50: IgE antibody production; for inhibition at 1 µM: test drug concentration 1 μM, IL-4 + IL-10 + anti-CD40 antibody, read-out: IgE production suppressing ratio (%)
Procedure: (§1) The concentrations of IgE and IgG antibodies were measured by the following method according to the method described in the Journal of Immunology vol.146, pp.1836-1842, 1991 and the Journal of Immunology vol. 147, pp.8-13, 1991.
(§2) Concretely, lymphocyte was separated from the peripheral venous blood of healthy person by density gradient centrifugation. The obtained lymphocyte was washed, suspended in a culture liquid (RPMI-1640 (product of Gibco Co.)+10% heat-inactivated FCS (product of Whittaker Co.)+100 μg/ml streptomycin+100 U/ml penicillin G+2 mM L-glutamine) and cultured for a week in the presence of interleukin 4 (IL-4, product of GENZYME Co.) (0.1 μg/ml), anti-CD40 antibody (antiCD40Aab, product of BIOSOURCE Co.), clone B-B20) (2 μg/ml) and interleukin 10 (IL-10, product of GENZYME Co.) (0.2 μg/ml) in the presence or absence of the compounds of the present invention described in the Tables 10 to 15 at various concentrations as test drugs.
(§3) The culture liquid was added to the culture system, the culture was continued for additional one week, and the concentrations of IgE and IgG antibodies in the supernatant were measured by sandwich ELISA method.
(§4) The measurement by ELISA method was carried out according to the known ELISA method by using rabbit anti-human IgE(ε) antibody (product of ICN Co.) as the primary antibody and biotin.anti-human IgE monoclonal antibody (G7-26, product of PharMingen Co.) as the secondary antibody for the measurement of IgE antibody concentration and anti-human IgG monoclonal antibody (G18-145, product of PharMingen Co.) as the primary antibody and biotin-donkey anti-human IgG antibody (H+L) (product of Jackson Co.) as the secondary antibody for the measurement of IgG antibody concentration, and using avidin-biotin-hourse radish peroxidase (ABC kit, product of Vector Lab.) as the enzyme and TMB (3,3′,5,5′-tetramethylbenzidine) microwell peroxidase substrate system (product of Kirkegaard & Perry Laboratories Inc.) as the substrate.
(§5) The value of IC50 and the suppressing ratio (%) at the test drug concentration of 1 μM were calculated based on the concentration attained in the absence of the compound of the present invention (reference: Ueshimna, et al. American Academy of Allergy & Immunology, 1995 Annual Meeting, Program No.818).

L929 cells = experiment: Measurement of cytotoxicity using mouse tumor cell L929 (neutral red assay)
Procedure: [Procedure] The cytotoxicity action on tumor cell was measured by neutral red assay (the method described in the Journal of Tissue Culture Methodology vol.9, p.7 (1984) and Toxicology Letters, vol.24, p.119 (1985)). Concretely, L929 cells (5×10^4 cells/ml, 10% FCS/RPMI) were added to the wells of a 96 well ELISA plate at a rate of 100 μL each and cultured for a night, and the testing compounds of respective measurement concentrations were dissolved in DMSO solution and added to the above cells. The culture was continued for 3 days, and 2.0 μL of Neutral Red was added to attain the final concentration of 0.01%. The mixture was incubated for 1 hour at 37° C., the supernatant of the cell culture product was removed and the residue was washed twice with 200 μL of PBS to remove excess Neutral Red. Thereafter, the dye taken into the cell was extracted by adding 100 μL of 50% ethanol-1% acetic acid aqueous solution and the amount of the dye was determined by measuring the absorbance at 490 nm. The cytotoxicity was determined at each concentration of the test compound taking the cytotoxicity free from the drug as 100%. […] Two sets of measurement were performed for each test under the same condition and the average value was used as the test result.

[2] = test system: IgG antibody production from human lymphocyte; experiment: Human in vitro IgG antibody production (same lymphocyte culture, sandwich ELISA); conditions: for inhibition at 1 µM: Homo sapiens, Lymphocyte, test drug concentration 1 μM, IL-4 + IL-10 + anti-CD40 antibody, read-out: IgG production suppressing ratio (%); for IC50: IgG antibody production
Procedure: as §1, §2, §3, §4, §5

[3] = test system: Cultured human cancer cells; experiment: Carcinostatic action on cultured human cancer cell (sulforhodamine B; GI50, TGI, LC50); conditions: for CC50 / GI50: Homo sapiens
Procedure: [Procedure] Cultured human cancer cells (39 kinds) were scattered on a 96 well plate, a solution of the testing substance (5-stage concentrations starting from 10^−4 M and diluted 10 times to 10^−8 M) was added thereto on the next day and the cells were cultured for 2 days. The number of the proliferated cells on each plate was determined by colorimetric quantitative analysis with sulforhodamine B. The concentration to suppress the proliferation of cell by 50% (GI50) compared with a control (free from the testing substance) was calculated and the following values (concentrations) were calculated based on the number of cells immediately before the addition of the testing substance.
TGI: concentration to suppress the proliferation to a standard cell number (free from the change of apparent number of cells)
LC50: concentration to decrease the number of cells to 50% of the standard cell number (cytocidal activity)
The proliferation-suppressing results of three testing substances 124, 257 and 983 on 9 representative cancer cell strains are collectively shown in the Tables 93 to 95.

[4] = L929, 72 h, read-out: LD50 (μM)
[5] = 72 h, cytotoxic activity against L929, neutral red assay, 3 days culture, read-out: LD50 (the source's name)

SMILES: O=C(Cc1ccc(Oc2ccc(OC3CCOCC3)cc2)cc1)Nc1ccccc1C(=O)O [compound 44]
- IC50 [1]: 0.221 µM
- inhibition at 1 µM [1]: 100%
- CC50 (L929 cells; [4]): 1.16 µM
- inhibition at 1 µM [2]: 88.5%
- IC50 [2]: 0.404 µM

SMILES: CC(=O)Nc1ccc(CCOc2ccc(Oc3ccc(CC(=O)Nc4ccccc4C(=O)O)cc3)cc2)cc1 [compound 45]
- IC50 [1]: 0.305 µM
- inhibition at 1 µM [1]: 99.4%
- CC50 (L929 cells; [5]): 0.22 µM
- inhibition at 1 µM [2]: -179%
- IC50 [2]: 0.631 µM

SMILES: COC(=O)N1CCC(Oc2ccc(Oc3ccc(CC(=O)Nc4ccccc4C(=O)O)cc3)cc2)CC1 [compound 79]
- IC50 [1]: 0.04 µM
- inhibition at 1 µM [1]: 100%
- CC50 (L929 cells; [4]): 0.98 µM
- inhibition at 1 µM [2]: 92.4%
- IC50 [2]: 0.489 µM

SMILES: O=C(Nc1ccccc1C(=O)O)c1ccc(Oc2ccc(OCCN3CCCCC3)cc2)cc1 [compound 93]
- IC50 [1]: 0.738 µM
- inhibition at 1 µM [1]: 56.2%
- IC50 [2]: > 10 µM

SMILES: O=C(Cc1ccc(Oc2ccc(OC3CCC(NC(=O)c4ccc(Cl)c(Cl)c4)CC3)cc2)cc1)Nc1ccccc1C(=O)O (stereo not drawn) [compound 100]
- IC50 [1]: 0.028 µM
- inhibition at 1 µM [1]: 100%
- CC50 (L929 cells; [5]): 0.95 µM
- inhibition at 1 µM [2]: 100%
- IC50 [2]: 0.244 µM

SMILES: O=C(Cc1ccc(Oc2ccc(OC3CCC(NS(=O)(=O)c4ccccc4)CC3)cc2)cc1)Nc1ccccc1C(=O)O (stereo not drawn) [compound 121]
- IC50 [1]: 0.027 µM
- inhibition at 1 µM [1]: 100%
- CC50 (L929 cells; [4]): 1.8 µM
- inhibition at 1 µM [2]: 77.5%
- IC50 [2]: 0.543 µM

SMILES: O=C(Cc1ccc(Oc2ccc(OC3CCC(NS(=O)(=O)c4ccc(Cl)c(Cl)c4)CC3)cc2)cc1)Nc1ccccc1C(=O)O (stereo not drawn) [compound 124]
- TGI ([3]; HBC-4): 18000 nM
- TGI ([3]; HCT-15): 17000 nM
- CC50 ([3]; HBC4, HBC-4): 57000 nM
- GI50 ([3]; HBC4, HBC-4): 250 nM
- CC50 ([3]; HCT-15): 58000 nM
- GI50 ([3]; HCT-15): 170 nM
- CC50 ([3]; MKN-74): > 100000 nM
- GI50 ([3]; MKN-74): 86 nM
- CC50 ([3]; NCI-H460): 69000 nM
- GI50 ([3]; NCI-H460): 91 nM
- CC50 ([3]; OVCAR-8): 57000 nM
- GI50 ([3]; OVCAR-8): 3100 nM
- CC50 ([3]; PC-3): 55000 nM
- GI50 ([3]; PC-3): 10000 nM
- CC50 ([3]; RXF-631L): 38000 nM
- GI50 ([3]; RXF-631L): 130 nM
- CC50 ([3]; SF-539): 57000 nM
- GI50 ([3]; SF-539): 130 nM
- CC50 ([3]; LOX-IMVI): 45000 nM
- GI50 ([3]; LOX-IMVI): 90 nM
- TGI ([3]; LOX-IMVI): 10000 nM
- TGI ([3]; MKN-74): 16000 nM
- TGI ([3]; NCI-H460): 14000 nM
- TGI ([3]; OVCAR-8): 23000 nM
- TGI ([3]; PC-3): 24000 nM
- TGI ([3]; RXF-631L): 12000 nM
- TGI ([3]; SF-539): 26000 nM
- CC50 (L929 cells; [5]): 0.14 µM

SMILES: CC(C)(C)OC(=O)NC1CCC(Oc2ccc(Oc3ccc(CC(=O)Nc4ccccc4C(=O)O)cc3)cc2)CC1 (stereo not drawn) [compound 133]
- IC50 [1]: 0.042 µM
- inhibition at 1 µM [1]: 100%
- CC50 (L929 cells; [4]): 0.33 µM
- inhibition at 1 µM [2]: 98.2%
- IC50 [2]: 0.228 µM

SMILES: O=C(Cc1ccc(Oc2ccc(OC3CCC(NC(=O)Nc4ccc(Cl)c(Cl)c4)CC3)cc2)cc1)Nc1ccccc1C(=O)O (stereo not drawn) [compound 142]
- IC50 [1]: 0.034 µM
- inhibition at 1 µM [1]: 100%
- CC50 (L929 cells; [5]): 0.54 µM
- inhibition at 1 µM [2]: 93.7%
- IC50 [2]: 0.141 µM

SMILES: O=C(Cc1ccc(Oc2ccc3cc(O[C@H]4CC[C@@H](NC(=O)c5cc(Cl)cnc5Cl)CC4)ccc3c2)cc1)Nc1ccccc1C(=O)O [compound 351]
- IC50 [1]: < 0.01 µM
- inhibition at 1 µM [1]: 100%
- CC50 (L929 cells; [5]): 0.31 µM
- inhibition at 1 µM [2]: 71.7%
- IC50 [2]: 0.662 µM

SMILES: CCCCC(=O)N[C@H]1CC[C@@H](Oc2ccc3cc(Oc4ccc(C(=O)Nc5ccccc5C(=O)O)cc4)ccc3c2)CC1 [compound 370]
- IC50 [1]: 0.027 µM
- inhibition at 1 µM [1]: 94.7%
- CC50 (L929 cells; [4]): 6.8 µM
- inhibition at 1 µM [2]: -45.5%
- IC50 [2]: > 1 µM

SMILES: CCOCCOc1ccc(Oc2ccc(CC(=O)Nc3ccccc3C(=O)O)cn2)cc1 [compound 415]
- IC50 [1]: 0.028 µM
- inhibition at 1 µM [1]: 100%
- inhibition at 1 µM [2]: -85.8%
- IC50 [2]: 9.76 µM

SMILES: O=C(Cc1ccc(Oc2ccc3cc(OCCN4CCOCC4)ccc3c2)nc1)Nc1ccccc1C(=O)O [compound 427]
- IC50 [1]: 0.04 µM
- inhibition at 1 µM [1]: 96.4%
- inhibition at 1 µM [2]: > 10%
- IC50 [2]: > 10 µM

From patent US6649656B1, “Anthranilic acid derivatives” (Teijin Limited, priority 1998, dated 2003)
